Tests used:
[1] = biological target: T1, GST-E6/His-E6AP (Human papillomavirus type 16, UniProt P03126); assay: AlphaScreen bead-based assay, GST-E6/His-E6AP binding; design: species or system HPV 16
T1 construct: made in house
Description: FIGS. 2A-C are graphs providing data regarding inhibition of protein-protein interactions by 3-(1H-indol-1yl)propan-1-amine (1), three benzimidazole derivatives (2-4), and spinacine (5). Compounds, at the indicated concentrations (1.4 μM to 3.2 mM) were tested using a bead-based screening assay for their ability to inhibit three different protein/protein interactions: (FIG. 2A) GST-E6/His-caspase 8; (FIG. 2B) GST-E6/HisE6AP; and (FIG. 2C) GST-caspase 8/His-caspase 8. Binding in the presence of 1.4 μM of the test compound was set at 100%. Experiments were performed in triplicate, and error bars indicate the standard deviation.
To determine the dose-responsiveness of these five compounds, variable concentrations of those small molecules were first tested for their ability to inhibit E6/caspase binding. […] These molecules, which had been selected for their ability to interfere with E6/caspase 8 binding, were then tested to determine if they could also affect other interactions of E6, such as its binding to E6-associated protein (E6AP). The E6/E6AP interaction is required for the E6-mediated acceleration of p53 degradation (Huibregtse, J. M., M. Scheffner, and P. M. Howley, A cellular protein mediates association of p53 with the E6 oncoprotein of human papillomavirus types 16 or 18. The EMBO journal, 1991. 10(13): p. 4129-35).
Alpha-Screen™ technology was used to assess the interactions between GST-E6, GST-caspase 8, His-E6AP, and His-caspase 8. Binding assays were performed in white 384-well plates (Perkin-Elmer) in a total volume of 25 μl as previously described (Tungteakkhun, S. S., et al., The interaction between human papillomavirus type 16 and FADD is mediated by a novel E6 binding domain. Journal of virology, 2008. 82(19): p. 9600-14). Briefly, 5 μl (50 ng) of GST-E6 and 5 μl (87.5 ng) of His-caspase 8 were included in each reaction mixture with 5 μl blocking buffer (0.5 mg BSA, 0.5% Tween 20 in PBS) in the absence or presence of 10 μM of each test chemical. Members of the library were present at […] in DMSO. After a one-hour incubation of the mixture at room temperature, 5 μl donor beads and 5 μl acceptor beads (Perkin-Elmer) were added to each well according to the manufacturer's protocol. The mixture was incubated in the dark at room temperature overnight, and the emitted signal was detected using the Envision Multilabel plate reader (Perkin-Elmer). In the presence of test chemicals, the binding affinity was calculated as a percentage of the binding in the presence of carrier only (DMSO).

[2] = tested on: SCC84 (#84) cells; assay: MTT cell viability, HPV- HNSCC cell line #84 with TRAIL; assay type: cell-based; settings: 50 ng/ml TRAIL with myricetin 0-200 μM or spinacine 0-100 μM
Description: FIGS. 7A-E are graphs showing myricetin and spinacine (5) re-sensitized HPV^+, but not HPV^−, head and neck cancer cell lines to treatment with TRAIL. (FIG. 7A) Both HPV^− and HPV^+ HN cancer cell lines display resistance to TRAIL treatment. HPV^− (#84) (Myricetin—FIG. 7B; Spinacine—FIG. 7C) and HPV^+ (#90) (FIG. 7D; Spinacine—FIG. 7E) head and neck cancer cell lines (2×10^4 cells per well) were seeded into 96-well plates and allowed to incubate overnight, then cells were pre-treated with myricetin (0-200 μM) or spinacine (0-100 μM) for 4 h. […] Cell viability was measured by the MTT assay, and the viability of cells untreated with small molecules was set at 100%. Experiments were performed in triplicate, and error bars indicate the standard deviation.
As shown above, myricetin and spinacine sensitize SiHa cells to TRAIL and chemotherapy drugs. […] Other types of HPV^+ cancer cells were examined, and in particular, head and neck squamous cell carcinoma (HNSCC) cells can also be sensitized in this manner. […]
The extracellular domain of human TRAIL was cloned into a pTriEx expression plasmid containing N-terminal Hisx6 tag. […] All experiments were repeated at least three times (three biological replicates, carried out on different days), with each experimental group measured in triplicate within each of these individual experiments. […]

T1 sequence (P03126 whole entry): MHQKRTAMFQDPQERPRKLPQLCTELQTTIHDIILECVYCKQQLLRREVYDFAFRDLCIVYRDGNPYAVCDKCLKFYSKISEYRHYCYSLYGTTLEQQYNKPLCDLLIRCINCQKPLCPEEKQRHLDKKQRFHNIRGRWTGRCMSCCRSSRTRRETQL

**Q.** Which “inhibition of E6/E6AP interaction (in words)” value ([1]; FIG. 2B) does the source give for `O=C(O)C1Cc2[nH]cnc2CN1` (stereo not shown) [Compound 5, 4,5,6,7-Tetrahydro-1H-imidazo(4,5-c)pyridine-6-carboxylic acid] here?
**A.** could also inhibit the E6/E6AP interaction

**Q.** What about the “response of HPV- HNSCC cell line #84 to TRAIL (in words)” value [2] of the same molecule?
**A.** resistant

**Q.** `OCn1cnc2ccccc21` [Compound 3, 1H-benzimidazole-1-methanol] was tested. Which “EC50 for GST-E6/His-E6AP interaction” value ([1]; bead-based assay, compounds tested 1.4 μM to 3.2 mM) did it give?
**A.** No Inhibition

**Q.** How did the “response of HPV- HNSCC cell line #84 to TRAIL (in words)” value [2] turn out when `O=c1c(O)c(-c2cc(O)c(O)c(O)c2)oc2cc(O)cc(O)c12` [Myricetin, reference compound] was run?
**A.** resistant

Reference: US20180200233A1, “COMPOSITIONS FOR PREVENTING CANCERS ASSOCIATED WITH HUMAN PAPILLOMA VIRUSES” (Loma Linda University, priority 2015, published 2018)
